The text below walks through data of patent US11078192B2, “Aromatic acetylene or aromatic ethylene compound, intermediate, preparation method, pharmaceutical composition and use thereof” (GUANGZHOU MAXINOVEL PHARMACEUTICALS CO., LTD., priority 2016, dated 2021).

The target of this assay is PD-1/PD-L1 (Homo sapiens (Human), UniProt Q9NZQ7). Kind of assay: Homogeneous Time-Resolved Fluorescence (HTRF) binding assay. Particulars: CisBio kit #64CUS000C-1, read-out: IC50 of compounds binding to PD-1/PD-L1. How it is done: Homogeneous Time-Resolved Fluorescence (HTRF) binding assay was used to determine the binding activity of the compound of the present invention to PD-1/PD-L1.
The purchased kit (CisBio, #64CUS000C-1) contained reagents required for assays such as PD-1, PD-L1, anti-tag1-Eu, Anti-tag2-XL665, Dilute Buffer, and Detection Buffer.
1. The compound was formulated to 10 concentrations with a 3-fold gradient with 100% DMSO.
2. The solution of the compound in DMSO was added to Dilute Buffer, mixed thoroughly, then transferred to a 96-well plate.
3. PD-L1 was diluted with Dilute Buffer, then added to the above 96-well plate.
4. PD-1 was diluted with Dilute Buffer and added to the above 96-well plate, which was then incubated at room temperature for 30 minutes.
5. A portion of anti-tag1-Eu and a portion of anti-tag2-XL665 were added to Detection Buffer, mixed thoroughly and transferred to the above 96-well plate.
6. The mixture in the above 96-well plate was incubated at room temperature for 1 to 24 hours.
7. HTRF values were read with Envision.
For orientation: In TR-FRET formats the signal depends on donor and acceptor labels being close together.

PD-1/PD-L1, sequence (Q9NZQ7 19-238): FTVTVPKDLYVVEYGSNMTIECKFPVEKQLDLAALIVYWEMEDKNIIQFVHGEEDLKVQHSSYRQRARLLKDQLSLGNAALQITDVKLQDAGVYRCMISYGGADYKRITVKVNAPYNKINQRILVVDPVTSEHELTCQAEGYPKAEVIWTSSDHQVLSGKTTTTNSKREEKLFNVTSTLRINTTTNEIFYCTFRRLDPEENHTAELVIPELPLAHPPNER

Turning to `Cc1cc(/C=C/c2cccc(-c3ccc4c(c3)OCCO4)c2C)cc(OCc2cccc(C#N)c2)c1CN1CCC[C@H]1CO` [Compound 1, (S,E)-3-((5-(3-(2,3-Dihydrobenzo[b][1,4]dioxin-6-yl)-2-methylstyryl)-2-((2-(hydroxymethyl)pyrrolidin-1-yl)methyl)-3-methylphenoxy)methyl)benzonitrile], the IC50 stood at 1530 nM. The value for `COc1cc(C#Cc2cccc(-c3ccccc3)c2C)cc(OC)c1CN1CCC[C@H]1CO` [Compound 2, (S)-(1-(2,6-Dimethoxy-4-((2-methyl-biphenyl-3-yl)ethynyl)benzyl)pyrrolidin-2-yl)methanol] was 1340 nM; that for `COc1cc(/C=C/c2cccc(-c3ccccc3)c2C)cc(OC)c1CN1CCC[C@H]1CO` [Compound 3, (S,E)-(1-(2,6-Dimethoxy-4-((2-methylbiphenyl-3-yl)vinyl)benzyl)pyrrolidin-2-yl)methanol] was 2700 nM; that for `COc1cc(/C=C/c2cccc(-c3ccccc3)c2C)cc(OC)c1CNCCO` [Compound 4, (E)-2-((2,6-Dimethoxy-4-(2-(2-methylbiphenyl-3-yl)vinyl)benzyl)amino)ethan-1-ol] was 280 nM.

With `COc1cc(/C=C/c2cccc(-c3ccccc3)c2C)cc(OC)c1CNC(CO)CO` [Compound 5, (E)-2-((2,6-Dimethoxy-4-(2-(2-methylbiphenyl-3-yl)vinyl)benzyl)amino)propane-1,3-diol], the IC50 was 60 nM. The value for `COc1cc(/C=C/c2cccc(-c3ccccc3)c2C)cc(OC)c1CNCCNC(C)=O` [Compound 6, (E)-N-(2-((2,6-Dimethoxy-4-(2-(2-methylbiphenyl-3-yl)vinyl)benzyl)amino)ethyl)acetamide] was 150 nM. In the case of `Cc1c(/C=C/c2ccc(CN3CCC[C@H]3CO)cc2Cl)cccc1-c1ccccc1` [Compound 11, (S,E)-(1-(3-Chloro-4-(2-(2-methylbiphenyl-3-yl)vinyl)benzyl)pyrrolidin-2-yl)methanol], the IC50 amounted to 460 nM.

In the case of `Cc1cc(CN2CCC[C@H]2CO)ccc1/C=C/c1cccc(-c2ccccc2)c1C` [Compound 12], the IC50 was 410 nM. For `Cc1cc(CN[C@H](C)C(=O)O)ccc1/C=C/c1cccc(-c2ccccc2)c1C` [Compound 13, (R,E)-2-(3-Methyl-4-(2-(2-methylbiphenyl-3-yl)vinyl)benzylamino)propanoic Acid], the IC50 came out at 240 nM. Consider `COc1cc(/C=C/c2cccc(-c3ccccc3)c2C#N)cc(OC)c1CN1CCC[C@H]1CO` [Compound 14, (S,E)-3-(4-((2-Hydroxymethylpyrrolidin-1-yl)methyl)-3,5-dimethoxystyryl)biphenyl-2-carbonitrile], for which the IC50 was 390 nM.

With `COc1cc(/C=C/c2cccc(-c3ccc4c(c3)OCCO4)c2C)cc(OC)c1CN1CCC[C@H]1CO` [Compound 15], the IC50 stood at 240 nM.

In the case of `Cc1c(/C=C/c2ccc(CN3CCC[C@H]3CO)cn2)cccc1-c1ccccc1` [Compound 16, (S,E)-(1-((6-(2-(2-Methylbiphenyl-3-yl)vinyl)pyridin-3-yl)methyl)pyrrolidin-2-yl)methanol], the IC50 turned out to be 590 nM.

With `Cc1c(/C=C/c2ccc(CNCCO)cn2)cccc1-c1ccc2c(c1)OCCO2` [Compound 17, (E)-2-((6-(3-(2,3-Dihydrobenzo[b][1,4]dioxin-6-yl)-2-methylstyryl)pyridin-3-yl)methylamino)ethanol], the IC50 is 310 nM. As to `Cc1c(/C=C/c2ccc(CNCC(O)CC(=O)O)cn2)cccc1-c1ccc2c(c1)OCCO2` (centres unmarked) [Compound 18, (E)-4-((6-(3-(2,3-Dihydrobenzo[b][1,4]dioxin-6-yl)-2-methylstyryl)pyridin-3-yl)methylamino)-3-hydroxybutanoic Acid], the IC50 is 190 nM. To `Cc1cc(CN2CCCC(O)C2C(=O)O)ccc1/C=C/c1cccc(-c2ccccc2)c1C` (centres unmarked) [Compound 19, (E)-3-Hydroxy-1-(3-methyl-4-(2-(2-methylbiphenyl-3-yl)vinyl)benzyl)piperidin-2-carboxylic Acid] belongs 330 nM; to `COC(=O)C1C(O)CCCN1Cc1ccc(/C=C/c2cccc(-c3ccccc3)c2C)c(Cl)c1` (centres unmarked) [Compound 20, (E)-Methyl 1-(3-chloro-4-(2-(2-methylbiphenyl-3-yl)vinyl)benzyl)-3-hydroxypiperidin-2-carboxylate], greater than 10000 nM; to `Cc1c(/C=C/c2ccc(CN3CCCC(O)C3C(=O)O)cc2F)cccc1-c1ccccc1` (centres unmarked) [Compound 21, (E)-3-Hydroxy-1-(3-fluoro-4-(2-(2-methylbiphenyl-3-yl)vinyl)benzyl)piperid in-2-carboxylic Acid], 780 nM.

For `Cc1cc(CN2CCCC(O)C2CO)ccc1/C=C/c1cccc(-c2ccccc2)c1C` (centres unmarked) [Compound 22, (E)-2-Hydroxymethyl-1-(3-methyl-4-(2-(2-methylbiphenyl-3-yl)vinyl)benzyl)piperidin-3-ol], the IC50 was 550 nM. Consider `Cc1c(/C=C/c2ccc(CN3CCCC(O)C3CO)cc2Cl)cccc1-c1ccccc1` (centres unmarked) [Compound 23, (E)-2-Hydroxymethyl-1-(3-chloro-4-(2-(2-methylbiphenyl-3-yl)vinyl)benzyl) piperidin-3-ol], for which the IC50 was 690 nM. To `Cc1c(/C=C/c2ccc(CN3CCCC(O)C3C(N)=O)cc2F)cccc1-c1ccccc1` (centres unmarked) [Compound 24, (E)-1-(3-Fluoro-4-(2-(2-methylbiphenyl-3-yl)vinyl)benzyl)-3-hydroxypiperidin-2-carboxamide] belongs greater than 10000 nM; to `COC(=O)C1C(O)CCCN1Cc1c(OC)cc(/C=C/c2cccc(-c3ccccc3)c2C)cc1OC` (centres unmarked) [Compound 25, (E)-Methyl 1-(2,6-dimethoxy-4-(2-(2-methylbiphenyl-3-yl)vinyl)benzyl)-3-hydroxypiperidin-2-carboxylate], 5950 nM. The value for `Cc1cc(CN2CCC[C@H](O)[C@@H]2C(N)=O)ccc1/C=C/c1cccc(-c2ccccc2)c1C` [Compound 26, (2R,3S,E)-3-Hydroxy-1-(3-methyl-4-(2-(2-methylbiphenyl-3-yl)vinyl)benzyl)piperidin-2-carboxamide] was 1300 nM; that for `Cc1cc(CN2CCC[C@@H](O)[C@@H]2C(N)=O)ccc1/C=C/c1cccc(-c2ccccc2)c1C` [Compound 27, (2R,3R,E)-3-Hydroxy-1-(3-methyl-4-(2-(2-methylbiphenyl-3-yl)vinyl)benzyl)piperidin-2-carboxamide] was 920 nM.

With `Cc1cc(CN2CCCC(O)C2C(=O)O)ccc1C#Cc1cccc(-c2ccccc2)c1C` (centres unmarked) [Compound 28, 1-(3-Methyl-4-((2-methylbiphenyl-3-yl)ethynyl)benzyl)-3-hydroxypiperidin-2-carboxylic Acid], the IC50 amounted to 2160 nM. Consider `Cc1c(C#Cc2ccc(CN3CCCC(O)C3C(=O)O)cc2F)cccc1-c1ccccc1` (centres unmarked) [Compound 29, 1-(3-Fluoro-4-((2-methylbiphenyl-3-yl)ethynyl)benzyl)-3-hydroxypiperidin-2-carboxylic Acid], for which the IC50 stood at 2820 nM. For the molecule `COc1cc(/C=C/c2cccc(-c3ccccc3)c2C)cc(OC)c1CN1CCCC(O)C1C(=O)O` (centres unmarked) [Compound 30, (E)-1-(2,6-Dimethoxy-4-(2-(2-methylbiphenyl-3-yl)vinyl)benzyl)-3-hydroxy piperidin-2-carboxylic Acid], the IC50 turned out to be 460 nM. As to `Cc1cc(CNC(CO)CO)ccc1/C=C/c1cccc(-c2ccccc2)c1C` [Compound 31, (E)-2-(3-Methyl-4-(2-(2-methylbiphenyl-3-yl)vinyl)benzylamino)-1,3-propanediol], the IC50 came to 240 nM. The value for `Cc1c(/C=C/c2ccc(CNC(CO)CO)cc2Cl)cccc1-c1ccccc1` [Compound 32, (E)-2-(3-Chloro-4-(2-(2-methylbiphenyl-3-yl)vinyl)benzylamino)-1,3-propanediol] was 250 nM; that for `Cc1c(/C=C/c2cc(CN[C@H](CO)C(=O)O)ccc2Cl)cccc1-c1ccccc1` [Compound 35, (R,E)-2-(4-Chloro-3-(2-(2-methylbiphenyl-3-yl)vinyl)benzylamino)-3-hydroxypropionic Acid] was 250 nM. With `Cc1ccc(CN[C@H](CO)C(=O)O)cc1/C=C/c1cccc(-c2ccccc2)c1C` [Compound 36, (R,E)-2-(4-Methyl-3-(2-(2-methylbiphenyl-3-yl)vinyl)benzylamino)-3-hydroxypropionic Acid], the IC50 came out at 100 nM. Take `COc1cc(/C=C/c2cccc(-c3ccccc3)c2C)cc(OC)c1CNCC(=O)O` [Compound 37, (E)-2-(2,6-Dimethoxy-4-(2-(2-methylbiphenyl-3-yl)vinyl)benzylamino)acetic Acid]: the IC50 stood at 100 nM. To `Cc1cc(CN[C@H](CO)C(=O)O)ccc1/C=C/c1cccc(-c2ccccc2)c1C` [Compound 38, (R,E)-2-(3-Methyl-4-(2-(2-methylbiphenyl-3-yl)vinyl)benzylamino)-3-hydroxypropionic Acid] belongs 230 nM; to `COc1nc(/C=C/c2cccc(-c3ccccc3)c2C)ccc1CNCCNC(C)=O` [Compound 39, (E)-N-(2-(((2-methoxy-6-(2-(2-methylbiphenyl)vinyl)pyridin-3-yl)methyl)amino)ethyl)acetamide], 170 nM; to `COc1nc(/C=C/c2cccc(-c3ccccc3)c2C)ccc1CNC(CO)CO` [Compound 40], 90 nM. On to `COc1nc(/C=C/c2cccc(-c3ccccc3)c2C)ccc1CN[C@H](CO)C(=O)O` [Compound 41, (R,E)-3-Hydroxy-2-((2-methoxy-6-(2-(2-methylbiphenyl-3-yl)vinyl)pyridin-3-yl)methylamino)propanoic Acid], for which the IC50 was 5090 nM.
